Values of other authors, collected in patent US6225288A, “Gamma-ketoacid dipeptides as inhibitors of caspase-3” (Merk Frosst Canada & Co., priority 2000, dated 2001).
pKi: −log10 of the molar value.

Key:
[1] = molecular target: T1, caspase-1 (Homo sapiens, UniProt P29466)
T1 sequence (P29466 120-297 limits assumed): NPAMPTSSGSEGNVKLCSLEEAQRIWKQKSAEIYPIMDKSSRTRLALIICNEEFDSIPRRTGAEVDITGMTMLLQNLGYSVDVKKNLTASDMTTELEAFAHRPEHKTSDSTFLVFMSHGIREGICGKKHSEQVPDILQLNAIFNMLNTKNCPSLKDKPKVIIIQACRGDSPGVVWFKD
T1 sequence (P29466 317-404 limits assumed): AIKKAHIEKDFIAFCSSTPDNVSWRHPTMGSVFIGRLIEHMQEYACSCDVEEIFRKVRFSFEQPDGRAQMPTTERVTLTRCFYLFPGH

[2] = molecular target: T2, caspase-3 (Homo sapiens, UniProt P42574)
T2 sequence (P42574 29-175 limits assumed): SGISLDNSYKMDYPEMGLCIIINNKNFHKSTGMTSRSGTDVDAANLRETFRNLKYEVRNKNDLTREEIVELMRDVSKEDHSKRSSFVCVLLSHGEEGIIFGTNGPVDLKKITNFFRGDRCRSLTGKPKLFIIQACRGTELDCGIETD
T2 sequence (P42574 176-277 limits assumed): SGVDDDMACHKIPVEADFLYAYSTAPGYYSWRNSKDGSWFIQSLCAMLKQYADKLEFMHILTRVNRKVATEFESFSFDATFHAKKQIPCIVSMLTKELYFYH

Substance: Ac-YVAD-CHO
- pKi [1]: > 9.00
- pKi [2]: 4.92
